Results: patent US10920236B2, “Use of micropeptides in order to stimulate mycorrhizal symbiosis” (UNIVERSITE TOULOUSE III—PAUL SABATIER, priority 2014, dated 2021)

How the values were obtained:
[1] = system: mycorrhization of Oryza sativa by Rhizophagus irregularis; assay: Mycorrhization of Oryza sativa (rice); format: in vivo; settings: 0.1 μM, 5 weeks post inoculation; vs solvent control; FIGS. 13, 14, 15, 16 and 19
Protocol: The effects of the osmiPEP171i on mycorrhization of the rice were analyzed by treating the plants with osmiPEP171i in parallel with the mycorrhization.
The seeds are sterilized for 1 min with 70% ethanol, then for 30 min with sodium hypochlorite solution before rinsing.
Culturing of a previously germinated seed of rice is carried out in a pot containing vermiculite with cotton fibre at the bottom. 500 spores of Rhizophagus irregularis are added per pot. The spores in mixtures in a substrate are arranged in a layer on the vermiculite at approximately two thirds of the height of the pot. The remainder of the pot is then filled with vermiculite and a hole is made for placing a germinated rice seed therein. The substrate is moistened. The pots are then placed in a growing room at 25° C.
Treatments of the Plants with miPEP: • OsmiPEP171i: 0.1 μM (final) • Control: equivalent of 50% ACN solution
The treatments are carried out on Monday and Friday by mixing the solution of miPEP or control in 60 ml of nutrient solution (1/2 Hoagland with 25 μM Pi and Sequestren) and on Wednesday the solution of miPEP or control in 60 ml of water. Each plant is watered with 10 ml per pot. […]

[2] = system: mycorrhization of Solanum lycopersicum by Rhizophagus irregularis; assay: Mycorrhization of Solanum lycopersicum (tomato); format: in vivo; settings: 0.1 μM slmiPEP171e, watering every two days, 12 weeks post inoculation; vs solvent; FIGS. 8 and 17
Protocol: The effects of slmiPEP171e on mycorrhization of the tomato were analyzed by treating the plants with slmiPEP171e in parallel with the mycorrhization.
The seeds are sterilized for 2 minutes in sodium hypochlorite solution diluted ¼, then rinsed at least 8 times with sterile water.
The seeds are placed in a Petri dish containing water+1% agar. The dishes are placed at 4° C. overnight, then they are placed at ambient temperature for 4 days in order to germinate the seeds.
The germinated seeds are transferred to an Oil-Dry® substrate containing spores of Rhizophagus irregularis at the concentration of 400 spores/L. After two days of adaptation under mini-greenhouse the seedlings are transferred to a growing room or greenhouse. The plants are watered regularly with a solution of Long Ashton+nitrogen (Lauressergues et al., Plant J. 72(3):512-22, 2012).
The treatment is carried out by watering the plants with 12.5 ml of water+the concentrated solution of miPEP or the equivalent of solvent solution (50% acetonitrile) for the control treatment. The treatments are carried out every two days.
The roots are cleared with 1% KOH 7 minutes at 90° C., then stained 10 minutes in an ink solution (5% Sheaffer ink; 5% acetic acid) at 90° C.

[3] = system: lateral roots of M. truncatula; assay: Number of lateral roots in M. truncatula; format: in vivo, Medicago truncatula
Protocol: (§1) The surface of the seeds of M. truncatula was sterilized and they were placed to germinate on agar plates for 5 days at 4° C. in the dark. The young shoots were then grown on 12 cm square plates filled with Fahraeus medium without nitrogen and containing 7.5 μM phosphate (Lauresergues et al., Plant J., 72(3):512-22, 2012). The lateral roots were counted every day. In pots, the plants were watered every two days with modified Long Ashton medium containing little phosphorus (Balzergue et al., 2011 Journal of experimental botany, 62:1049-1060).
(§2) The peptides were synthesized by Eurogentec or Smartox-Biotech. The miPEP171b was placed in suspension in a water 40%/acetonitrile 50%/acetic acid 10% (v/v/v) solution.
The mean values of the relative expression of the genes or of the production of lateral roots were analyzed by using the Student test or the Kruskal-Wallis test. The error bars represent the standard error of the mean (SEM). The asterisks indicate a significant difference (p<0.05).
The DNA fragments of interest were amplified with Pfu polymerase (Promega). […]
(§3) The composite plants having roots transformed with Agrobacterium Rhizogenes were obtained by the method described in Boisson-Dernier et al. (Mol Plant-Microbe Interact, 18:1269-1276, 2005). The transformed roots were verified and selected by observations of DsRED with a binocular fluorescence magnifier. […]

[4] = system: colonization of M. truncatula by the fungus Rhizophagus irregularis; assay: Mycorrhization of M. truncatula by Rhizophagus irregularis; format: in vivo, Medicago truncatula
Protocol: Medicago truncatula plants were treated for 5 weeks, by watering every 2 days, with low concentrations (0.1 μM) of a synthetic peptide the sequence of which is identical to that of miPEP171b, and the percentage colonization of the plant was measured.
Sterile spores of Rhizophagus irregularis (previously called Glomus intraradices) DAOM197198 were purchased from Agronutrition (Carbonne, France).
Seeds of M. truncatula (Gaertn ‘Jemalong’ genotype A17) were sterilized on the surface and placed to germinate on agar plates in the dark for 5 days at 4° C. The plants were then grown on an Oil-Dri US-special substrate (Damolin, Denmark) for 5 to 12 weeks in a growing room and watered every 2 days with modified Long Ashton medium containing a low concentration of phosphate (Balzergue et al., J Exp Bot, 62(3):1049-60, 2011).
For the inoculation of the plants with R. irregularis, 450 spores were used per plant.
After washing in KOH 10% (weight/volume) and rinsing in sterile water, the mycorrhized roots were treated for 30 minutes with wheat germ agglutinin fluorescein conjugate (Invitrogen) which fixes the fungal chitin, then washed 3 times in a PBS buffer. The roots were then observed with an inverted optical microscope or a confocal microscope (Leica, France).
Alternatively, the roots were labelled with black Schaeffer ink according to the protocol described in Vierheilig et al., Appl Environ Microbiol, 64:5004-5007, 1998.
The percentage mycorrhization was measured using grids according to the protocol described in Giovannetti and Mosse, New Phytol, 84:489-500, 1980.
The accurate phenotyping of the mycorrhization was also carried out according to the method of Trouvelot et al., Physiological and Genetical Aspects of Mycorrhizae, pp 217-221, 1986. The frequency of mycorrhization (F) in the root system and the abundance of the arbuscules (A) (as a percentage) were calculated in colonized root sections using the software Mycocalc.
The size of the arbuscules was measured using the software ImageJ. […]

[5] = system: HAM1 (Accession No. MtGI9-TC114268); assay: Expression of the HAM1 gene in M. truncatula roots (qRT-PCR); format: in vivo, Medicago truncatula
Protocol: as §1, §2
(§4) The total RNA of the roots of M. truncatula was extracted by using the RNeasy Plant Mini Kit extraction kit (Qiagen). […]
(§5) The mean values of the relative expression of the genes or of the production of lateral roots were analyzed by using the Student test or the Kruskal-Wallis test. […]
as §3

miR171b = assay: Accumulation of miR171b in M. truncatula roots (qRT-PCR); format: in vivo, Medicago truncatula
Protocol: as §1, §2
The RNA was extracted by using the reagent Tri-Reagent (MRC) according to the manufacturer's instructions, with the exception of precipitation of the RNA which was carried out with 3 volumes of ethanol. […]
as §5, §3

[6] = system: HAM2 (Accession No. MtGI9-TC120850); assay: Expression of the HAM2 gene in M. truncatula roots (qRT-PCR); format: in vivo, Medicago truncatula
Protocol: as §1, §2, §4, §5, §3

[7] = system: mycorrhization of Lotus japonicus by Rhizophagus irregularis; assay: Mycorrhization of Lotus japonicus (birdsfoot trefoil); format: in vivo; settings: 0.1 μM, 5 weeks post inoculation; vs control; FIGS. 9, 10, 11, 12 and 18
Protocol: The effects of the LjmiPEP171b on mycorrhization of the birdsfoot trefoil were analyzed by treating the plants with LjmiPEP171b in parallel with the mycorrhization.
The seeds are sterilized in sodium hypochlorite solution for 20 min then rinsed several times in water.
Culturing of the birdsfoot trefoil plants is carried out in a pot containing vermiculite with cotton fibre at the bottom. 5,000 spores of Rhizophagus irregularis are added per pot. The spores in mixtures in a substrate are arranged in a layer on the vermiculite to approximately two thirds of the height of the pot. The remainder of the pot is then filled with vermiculite and 10 seeds of pre-germinated birdsfoot trefoil are placed in the moist substrate. 3 pots are prepared for each treatment. The pots are then places in a growing room at 25° C.
Treatments of the Plants with miPEP: • LjmiPEP171e: 0.1 μM (final) • Control: water.
The treatments are carried out on Monday and Friday by mixing the solution of miPEP or control with the nutrient solution (suitable B&D medium) and on Wednesday the solution of miPEP or control in water. Each pot is watered with 10 ml except on Friday 30 ml (without changing the quantity of miPEP), in order to last over the weekend. […]

[8] = plant in which miPEP171b is overexpressed vs control plant, FIG. 2A
[9] = synthetic peptide applied to roots, medium containing miPEP171b at 0.01 μM, 0.1 μM or 1 μM, vs control plant, FIG. 3A

## MIARYIEREMTSKLGRGRKRAARLVAVFLLG (listed as Oryza sativa) [osmiPEP171i]
[1]
  mycorrhization of rice: promotes

## MKLGNIEGTYFIICLGRYI (listed as Solanum lycopersicum) [slmiPEP171e]
[2]
  mycorrhization of the tomato: promotes

## MLLHRLSKFCKIERDIVYIS (listed as Medicago truncatula) [miPEP171b]
[3]; medium containing miPEP171b at 0.1 μM for 5 days and 1 time per day, vs control plant, FIG. 3B
  average number of lateral roots: reduction
[3]; plant in which miPEP171b is overexpressed vs control plant, FIG. 2B
  average number of lateral roots: reduction
[4]; 0.1 μM miPEP171b, 5 weeks post inoculation, vs control plants, FIG. 7
  mycorrhization rate: greater
[4]; 0.1 μM synthetic peptide, watering every 2 days for 5 weeks, vs solvent control, FIG. 5
  mycorrhization (percentage colonization of the plant): significantly increased
[4]; roots treated with 0.1 μM miPEP171b vs control roots, FIG. 6
  size (surface area) of the arbuscules: larger size
[5]; [8]
  expression of the HAM1 gene (relative expression): reduction
[5]; [9]
  expression of the HAM1 gene (relative expression): reduction
miR171b; [8]
  accumulation of miR171b (relative expression): increase
miR171b; [9]
  accumulation of miR171b (relative expression): increase
[6]; [8]
  expression of the HAM2 gene (relative expression): reduction
[6]; [9]
  expression of the HAM2 gene (relative expression): reduction

## MYHRSKAKLCQTDGDDGGGSDM (listed as Lotus japonicus) [LjmiPEP171b]
[7]
  mycorrhization of birdsfoot trefoil: promotes
